Laboratory results published in patent publication US20260240869A1, “ANTIPSEUDOMONAL FUSIDIC ACID COMPOUNDS” (priority 2022, published 2026).
Values after ≈ are worked out from the molar mass of the structure shown.

How the values were obtained:
[1] = system: E. coli MG1655; assay: LC-MS/MS whole-cell accumulation assay, E. coli MG1655; format: cell-based; conditions: for EC Accumulation (FA): E. coli MG1655, accumulation of FA reported (Table 8); for EC accum.: E. coli, value ± s.e.m. (Chart 2)
Procedure: (§1) Accumulation Assay. The accumulation assay was performed in triplicate in batches of ten samples, with each batch containing tetracycline or ciprofloxacin as a positive control. P. aeruginosa PAO1, PAO1 A6, PA14, PA14 A40, and PA1280, and E. coli MG1655 were used in these experiments. For each replicate, 2.5 mL (E. coli) or 5 mL (P. aeruginosa) of an overnight culture was diluted into 250 mL of fresh Luria-Bertani broth (Lennox) or Tryptic Soy Broth (TSB) and grown at 37° C. with shaking to an optical density (OD600) of 0.55-0.60. The bacteria were pelleted at 3220 r.c.f. for 10 min at 4° C., and the supernatant was discarded. The pellets were resuspended in 40 mL of phosphate buffered saline (PBS) and pelleted as before, and the supernatant was discarded. The pellets were resuspended in 8.8 mL of fresh PBS and aliquoted into ten, 1.5 mL Eppendorf tubes (875 μL each). The number of colony-forming units (CFUs) was determined by a calibration curve. The samples were equilibrated at 37° C. with shaking for 5 min; compound was added (final concentration=50 μM), and then the samples were incubated at 37° C. with shaking for either 10 min. These time points were short enough to minimize metabolic and growth changes (no changes in OD600 or CFU count observed). After incubation, 800 μL of the cultures was carefully layered on 700 μL of silicone oil (9:1 AR20/Sigma High Temperature, cooled to −78° C.). Bacteria were pelleted through the oil by centrifuging at 13 000 r.c.f. for 2 min at room temperature (with the supernatant remaining above the oil); the supernatant and oil were then removed by pipetting. To lyse the samples, each pellet was dissolved in […] of water, and then, they were subjected to three (E. coli) or four (P. aeruginosa) freeze-thaw cycles of 3 min in liquid nitrogen followed by 3 min in a water bath at 65° C. P. aeruginosa samples were then treated with 50 µM DNase and RNase and incubated at 37° C. for 15 minutes. The lysates were pelleted at 13 000 r.c.f. for 2 min at room temperature, and the supernatant was collected ([…]). The debris was resuspended in 100 μL of methanol and pelleted as before. The supernatants were removed and combined with the previous supernatants collected. Finally, the remaining debris was removed by centrifuging at 20 000 r.c.f. for 10 min at room temperature. Supernatants were analyzed by LC-MS/MS.
(§2) Samples were analyzed with the 5500 QTRAP LC/MS/MS system (AB Sciex) with a 1200 series HPLC system (Agilent Technologies) including a degasser, an autosampler, and a binary pump. Liquid chromatography separation was performed on an Agilent SB-Aq column (4.6×50 mm, 5 μm) (Agilent Technologies) with mobile phase A (0.1% formic acid in water) and mobile phase B (0.1% formic acid in acetonitrile). The flow rate was 0.3 mL/min. The linear gradient was as follows: 0-3 min, 100% mobile phase A; 10-15 min, 2% mobile phase A; 15.5-21 min, 100% mobile phase A. The autosampler was set at 5° C. The injection volume was 15 μL. Mass spectra were acquired with both positive electrospray ionization at the ion spray voltage of 5500 V and negative electrospray ionization at the ion spray voltage of −4500 V. The source temperature was 450° C. The curtain gas, ion source gas 1, and ion source gas 2 were 33, 50, and 65, respectively. Multiple reaction monitoring was used to quantify the metabolites. Power analysis was not used to determine the number of replicates. Error bars represent the standard error of the mean of three biological replicates. The statistical significance of the accumulation was determined using a two sample Welch's t test (one-tailed test, assuming unequal variance) relative to the negative controls. All compounds evaluated in the biological assays were >95% pure.

[2] = system: E. coli MG1655; assay: MIC, E. coli MG1655; format: cell-based; conditions: Escherichia coli, MG1655; CLSI (Table 8); read-out: E. coli MG1655 MIC
Procedure: (§3) Antimicrobial Susceptibility Tests. Susceptibility testing was performed in biological triplicate, using the microdilution broth method as outlined by the Clinical and Laboratory Standards Institute. Bacteria were cultured with cation-adjusted Meuller-Hinton broth (Sigma-Aldrich; catalogue number: 90922) or Luria-Bertani (LB) broth (Lennox) in round-bottom 96-well plates (Corning; catalogue number: 3788).

[3] = system: P. aeruginosa PAO1; assay: MIC, CLSI broth microdilution, P. aeruginosa PAO1; format: cell-based, Pseudomonas aeruginosa; conditions: Pseudomonas aeruginosa, PAO1; CLSI (Table 8); read-out: P. aeruginosa PAO1 MIC
Procedure: as §3

[4] = system: P. aeruginosa PAO1; assay: LC-MS/MS whole-cell accumulation assay, P. aeruginosa PAO1; format: cell-based, Pseudomonas aeruginosa; conditions: P. aeruginosa, value ± s.e.m. (Chart 2)
Procedure: as §1, §2
MBN assay. Assays measuring permeabilization by polymyxin B nonapeptide (PMBN) were performed as above, with the addition of 8 μg/mL PMBN immediately before the compound of interest was added.

[5] = system: WT EC; conditions: retrospective literature analysis (Table 6); cited from earlier work
[6] = system: WT PA; conditions: retrospective literature analysis (Table 6); cited from earlier work
[7] = system: tolC EC; conditions: retrospective literature analysis (Table 6); cited from earlier work

SMILES	EC accum. [1]	PA accum. [4]	WT PA MIC [6]	further results
CC(=O)O[C@H]1C[C@@]2(C)[C@@H](C[C@@H](O)[C@H]3[C@@]4(C)CC[C@@H](O)[C@@H](C)[C@@H]4CC[C@@]32C)/C1=C(\CCC=C(C)C)C(=O)O/N=C(\N)CNCCCNCCCN [FA prodrug 3]				EC Accumulation (FA) [1]: 1764 ± 37 nmol/1012 CFUs; MIC [2]: 32 µg/mL (≈ 45.6 µM); MIC [3]: 128 µg/mL (≈ 182 µM)
N[C@H]1CO[C@H]2[C@@H]1OC[C@H]2OS(=O)(=O)c1ccc(-c2ccccc2)cc1 [Compound 48]	1965 ± 291 nmol/10^12 CFUs	282 ± 37 nmol/10^12 CFUs		
CC(=O)O[C@H]1C[C@@]2(C)[C@@H](C[C@@H](O)[C@H]3[C@@]4(C)CC[C@@H](O)[C@@H](C)[C@@H]4CC[C@@]32C)/C1=C(\CCC=C(C)C)C(=O)O/N=C(\N)CNCCCN [FA prodrug 2]				EC Accumulation (FA) [1]: 969 ± 71 nmol/1012 CFUs; MIC [2]: 256 µg/mL (≈ 397 µM); MIC [3]: > 256 µg/mL
CCNc1cc(F)cc2c1[nH]c1ncc(-c3cnc(OC)nc3)c(-n3cc(CN)c(C(F)(F)F)n3)c12 [Compound 17r]			1.3 µg/mL	WT EC MIC [5]: 0.31 µg/mL
Cc1nc(-c2ccc(C(C)(C)C)cc2)ncc1C(=O)N[C@@H](CCO)C(=O)N(C)[C@@H]1C(=O)N[C@@H](C)C(=O)N[C@H](C(=O)NCC#N)Cc2ccc(O)c(c2)-c2cc1ccc2O [Compound G8126]			>64 µg/mL	WT EC MIC [5]: 32 µg/mL
N[C@H]1CO[C@H]2[C@@H]1OC[C@H]2OS(=O)(=O)c1ccc(Br)cc1 [Compound 49]	1647 ± 108 nmol/10^12 CFUs	217 ± 3 nmol/10^12 CFUs		
CC(=O)C1=C(O)[C@H](N)[C@@H]2Cc3c(c(O)c4c(O)c(C)ccc4c3C)C(=O)[C@]2(O)C1=O [CHD]			16 µg/mL	tolC EC MIC [7]: 0.5 µg/mL
NC1CCCc2c1cncc2N1Cc2cc(Cl)ccc2C1=O (stereo not drawn) [Compound 51]	500 ± 10 nmol/10^12 CFUs	222 ± 11 nmol/10^12 CFUs		
Cc1ccc(S(=O)(=O)O[C@@H]2CO[C@H]3[C@@H]2OC[C@@H]3N)cc1 [Compound 50]	877 ± 29 nmol/10^12 CFUs	163 ± 39 nmol/10^12 CFUs		
CCNc1cc(F)cc2c1[nH]c1ncc(-c3cnc(OC)nc3)c(-n3ncc4c3CNC4)c12 [Compound 17x]			10 µg/mL	WT EC MIC [5]: 0.81 µg/mL
CN1C(=O)CCc2cc(-c3cncc4c3CCC[C@H]4N)ccc21 [Compound 53]	437 ± 28 nmol/10^12 CFUs	282 ± 37 nmol/10^12 CFUs		
